IC50 data for 53 molecules are collected here from US8546443B2, “Benzylic oxindole pyrimidines” (Boehringer Ingelheim International GmbH, priority 2010, dated 2013).

This assay concerns the target T1, cytoplasmic kinase domain of human IGF-1R (IGF-1R-GST) (Homo sapiens, UniProt P08069).
T1 construct: cytoplasmic kinase domain of human IGF-1R (amino acids 964-1370); GST (glutathione-S-transferase); made in house; host or cells: High Five insect cells (Invitrogen)
Description: Insulin-like growth factor-1 receptor (IGF-1R) kinase assay (DELFIA). It counts as biochemical. The following applies: IGF-1R-GST kinase activity, read-out: IGF1R IC50. The protocol:
Insulin-Like Growth Factor-1 Receptor (IGF-1R)-Kinase Assay
The kinase activity is measured by DELFIA® assay (dissociation-enhanced lanthanide fluorescence immunoassay, Perkin Elmer). […] Enzyme activity is measured in the presence of substances and a control substance. Poly-glutamate-tyrosine peptide (pEY, Sigma Aldrich) and biotinylated pEY (bio-pEY) are used as reaction substrates.
After 40 min at RT the reactions are stopped with 50 μL of stop solution (250 mM EDTA, 20 mM HEPES pH 7.4). 90 μL from each reaction are transferred onto streptavidin-coated 96-well plates. After 120 min incubation at RT the plates are washed three times with 200 μL phosphate-buffered saline (PBS) per well. The plates are incubated for 60 min with 100 μL of europium-coupled antibody against phospho-tyrosine (diluted 1/2000 in Perkin Elmer DELFIA assay buffer) per well. The plates are washed three times with 200 μL per well of DELFIA washing buffer. 100 μL DELFIA Enhancement Solution (Perkin Elmer) is added to each well, and the plates are incubated for 10 min. The fluorescence signal is measured with a Wallac Victor TRF Reader. IC50 values for the inhibition of the IGF-1R-kinase activity are calculated using the programmes Fifty (Version 2) and GraphPad (Version 3.0).

T1 sequence (P08069 964-1367 limits assumed): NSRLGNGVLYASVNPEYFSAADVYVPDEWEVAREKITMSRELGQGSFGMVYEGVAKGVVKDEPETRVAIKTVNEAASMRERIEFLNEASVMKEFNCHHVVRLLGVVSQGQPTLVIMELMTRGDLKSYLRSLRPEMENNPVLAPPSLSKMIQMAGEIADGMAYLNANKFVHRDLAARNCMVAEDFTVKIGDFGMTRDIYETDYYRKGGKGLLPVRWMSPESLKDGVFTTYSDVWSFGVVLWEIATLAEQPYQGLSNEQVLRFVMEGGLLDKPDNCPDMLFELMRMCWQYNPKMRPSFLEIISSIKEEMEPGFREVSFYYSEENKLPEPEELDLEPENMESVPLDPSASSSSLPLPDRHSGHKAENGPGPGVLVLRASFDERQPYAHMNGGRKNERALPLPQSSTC

For orientation: IC50 means the concentration that gives 50% inhibition. In the case of `COc1cc(N2CCN(C3CCC3)CC2)ccc1Nc1ncc(C(F)(F)F)c(NCc2cccc3c2C(C)(C)C(=O)N3)n1` [Example I-155], the IC50 came out at 1 nM.

On to `COc1cc(N2CCN(C3COC3)CC2)ccc1Nc1ncc(C(F)(F)F)c(NCc2cccc3c2C(C)(C)C(=O)N3)n1` [Example I-156], for which the IC50 was 4 nM.

`CCN1CCN(c2ccc(Nc3ncc(C(F)(F)F)c(NCc4cccc5c4C(C)(C)C(=O)N5)n3)c(OC)c2)CC1` [Example I-157]: the IC50 worked out at 0.61 nM.

On to `COc1cc(N2CCN(C3CCN(C(C)=O)CC3)CC2)ccc1Nc1ncc(C(F)(F)F)c(NCc2cccc3c2C(C)(C)C(=O)N3)n1` [Example I-158], for which the IC50 came to 2 nM.

Regarding `COc1cc(C2CCN(C(C)C)CC2)ccc1Nc1ncc(C(F)(F)F)c(NCc2cccc3c2C(C)(C)C(=O)N3)n1` [Example I-159], the IC50 worked out at 0.41 nM.

Turning to `CN1CCC(c2ccc(Nc3ncc(Cl)c(NCc4cccc5c4C4(CC4)C(=O)N5)n3)cc2)CC1` [Example I-161], the IC50 is 0.96 nM.

Regarding `COc1cc(N2CCN(CC3CC3)CC2)ccc1Nc1ncc(C(F)(F)F)c(NCc2cccc3c2C(C)(C)C(=O)N3)n1` [Example I-162], the IC50 amounted to 2 nM.

With `CCOC(=O)N1CCC(N2CCN(c3ccc(Nc4ncc(C(F)(F)F)c(NCc5cccc6c5C(C)(C)C(=O)N6)n4)c(OC)c3)CC2)CC1` [Example I-163], the IC50 amounted to 10 nM.

Turning to `COc1cc(N2CCN(Cc3ccco3)CC2)ccc1Nc1ncc(C(F)(F)F)c(NCc2cccc3c2C(C)(C)C(=O)N3)n1` [Example I-164], the IC50 is 14 nM.

On to `COc1cc(N2CCN(CC3CC3)CC2)ccc1Nc1ncc(C(F)(F)F)c(NCc2cccc3c2CC(=O)N3)n1` [Example I-165], for which the IC50 stood at 4 nM.

On to `CCOC(=O)N1CCC(N2CCN(c3ccc(Nc4ncc(C(F)(F)F)c(NCc5cccc6c5CC(=O)N6)n4)c(OC)c3)CC2)CC1` [Example I-166], for which the IC50 was 11 nM.

As to `COCCNC1CCN(c2ccc(Nc3ncc(C(F)(F)F)c(NCc4cccc5c4C(C)(C)C(=O)N5)n3)c(OC)c2)CC1` [Example I-167], the IC50 is 0.2 nM.

Take `COCCCN(C)C1CCN(c2ccc(Nc3ncc(C(F)(F)F)c(NCc4cccc5c4C(C)(C)C(=O)N5)n3)c(OC)c2)CC1` [Example I-168]: the IC50 was determined as 0.2 nM.

Regarding `COc1cc(N2CCC(N(C)CCO)CC2)ccc1Nc1ncc(C(F)(F)F)c(NCc2cccc3c2C(C)(C)C(=O)N3)n1` [Example I-169], the IC50 amounted to 0.26 nM.

For the molecule `COc1cc(N2CCC(N3CCC(OC)CC3)CC2)ccc1Nc1ncc(C(F)(F)F)c(NCc2cccc3c2C(C)(C)C(=O)N3)n1` [Example I-170], the IC50 is 0.33 nM.

As for `COc1cc(N2CCC(N3CCOCC3)CC2)ccc1Nc1ncc(C(F)(F)F)c(NCc2cccc3c2C(C)(C)C(=O)N3)n1` [Example I-171], the IC50 stood at 0.38 nM.

For `COc1cc(N2CCC(N3CC[C@H](O)C3)CC2)ccc1Nc1ncc(C(F)(F)F)c(NCc2cccc3c2C(C)(C)C(=O)N3)n1` [Example I-172], the IC50 was 0.4 nM.

With `COc1cc(N2CCC(NCC(C)(C)OC)CC2)ccc1Nc1ncc(C(F)(F)F)c(NCc2cccc3c2C(C)(C)C(=O)N3)n1` [Example I-173], the IC50 was 0.46 nM.

Take `COc1cc(N2CCC(N3CC[C@@H](O)C3)CC2)ccc1Nc1ncc(C(F)(F)F)c(NCc2cccc3c2C(C)(C)C(=O)N3)n1` [Example I-174]: the IC50 was found to be 0.81 nM.

As to `COCCN(C)C1CCN(c2ccc(Nc3ncc(C(F)(F)F)c(NCc4cccc5c4C(C)(C)C(=O)N5)n3)c(OC)c2)CC1` [Example I-175], the IC50 was determined as 0.87 nM.

Turning to `COc1cc(N2CCC(N3CCC3)CC2)ccc1Nc1ncc(C(F)(F)F)c(NCc2cccc3c2C(C)(C)C(=O)N3)n1` [Example I-176], the IC50 came to 0.98 nM.

Regarding `COc1cc(N2CCC(N3CCC(O)CC3)CC2)ccc1Nc1ncc(C(F)(F)F)c(NCc2cccc3c2C(C)(C)C(=O)N3)n1` [Example I-177], the IC50 turned out to be 1 nM.

As for `COc1cc(N2CCC(N(C)CCN(C)C)CC2)ccc1Nc1ncc(C(F)(F)F)c(NCc2cccc3c2CC(=O)N3)n1` [Example I-178], the IC50 was found to be 2 nM.

As for `COCCNC1CCN(c2ccc(Nc3ncc(C(F)(F)F)c(NCc4cccc5c4CC(=O)N5)n3)c(OC)c2)CC1` [Example I-179], the IC50 came to 2 nM.

For `COc1cc(N2CCC(N3CCCC3)CC2)ccc1Nc1ncc(C(F)(F)F)c(NCc2cccc3c2C(C)(C)C(=O)N3)n1` [Example I-180], the concentration for half-maximal inhibition (IC50) was 2 nM.

`COc1cc(N2CCC(N(C)C)CC2)ccc1Nc1ncc(C(F)(F)F)c(NCc2cccc3c2C(C)(C)C(=O)N3)n1` [Example I-181]: the half-maximal inhibitory concentration (IC50) turned out to be 2 nM.

As for `COc1cc(N2CCC(N3CCC(N(C)C)CC3)CC2)ccc1Nc1ncc(C(F)(F)F)c(NCc2cccc3c2CC(=O)N3)n1` [Example I-182], the IC50 amounted to 3 nM.

For the molecule `COc1cc(N2CCC(NCCCN(C)C)CC2)ccc1Nc1ncc(C(F)(F)F)c(NCc2cccc3c2CC(=O)N3)n1` [Example I-183], the IC50 stood at 3 nM.

For `COc1cc(N2CCC(N(C)C)CC2)ccc1Nc1ncc(C(F)(F)F)c(NCc2cccc3c2CC(=O)N3)n1` [Example I-184], the IC50 came to 4 nM.

`COc1cc(N2CCC(N(C)CCCN(C)C)CC2)ccc1Nc1ncc(C(F)(F)F)c(NCc2cccc3c2CC(=O)N3)n1` [Example I-185]: the IC50 was 4 nM.

Regarding `COc1cc(N2CCC(N(C)CCO)CC2)ccc1Nc1ncc(C(F)(F)F)c(NCc2cccc3c2CC(=O)N3)n1` [Example I-186], the IC50 worked out at 4 nM.

As to `CNC1CCN(c2ccc(Nc3ncc(C(F)(F)F)c(NCc4cccc5c4CC(=O)N5)n3)c(OC)c2)CC1` [Example I-187], the half-inhibitory concentration (IC50) amounted to 4 nM.

On to `COc1cc(N2CCC(N3CCC(O)CC3)CC2)ccc1Nc1ncc(C(F)(F)F)c(NCc2cccc3c2CC(=O)N3)n1` [Example I-188], for which the IC50 was 5 nM.

Take `COc1cc(N2CCC(N3CCCC3)CC2)ccc1Nc1ncc(C(F)(F)F)c(NCc2cccc3c2CC(=O)N3)n1` [Example I-189]: the IC50 was found to be 5 nM.

Regarding `COc1cc(N2CCC(N3CCN(C4CC4)CC3)CC2)ccc1Nc1ncc(C(F)(F)F)c(NCc2cccc3c2CC(=O)N3)n1` [Example I-190], the 50% inhibitory concentration (IC50) was found to be 6 nM.

In the case of `COc1cc(N2CCC(NCCO)CC2)ccc1Nc1ncc(C(F)(F)F)c(NCc2cccc3c2CC(=O)N3)n1` [Example I-191], the IC50 came out at 6 nM.

Regarding `COc1cc(N2CCC(N3CCC(OC)CC3)CC2)ccc1Nc1ncc(C(F)(F)F)c(NCc2cccc3c2CC(=O)N3)n1` [Example I-192], the half-inhibitory concentration (IC50) was 6 nM.

On to `COc1cc(N2CCC(N3CCN(C4CCN(C)CC4)CC3)CC2)ccc1Nc1ncc(C(F)(F)F)c(NCc2cccc3c2CC(=O)N3)n1` [Example I-193], for which the IC50 amounted to 7 nM.

As for `COc1cc(N2CCC(NCCN(C)C)CC2)ccc1Nc1ncc(C(F)(F)F)c(NCc2cccc3c2CC(=O)N3)n1` [Example I-194], the IC50 turned out to be 7 nM.

Regarding `COc1cc(N2CCC(N3CCC(C#N)CC3)CC2)ccc1Nc1ncc(C(F)(F)F)c(NCc2cccc3c2CC(=O)N3)n1` [Example I-195], the IC50 came to 7 nM.

Turning to `COc1cc(N2CCC(N3CCOCC3)CC2)ccc1Nc1ncc(C(F)(F)F)c(NCc2cccc3c2CC(=O)N3)n1` [Example I-196], the concentration for half-maximal inhibition (IC50) is 8 nM.

Take `COCCN(C)C1CCN(c2ccc(Nc3ncc(C(F)(F)F)c(NCc4cccc5c4CC(=O)N5)n3)c(OC)c2)CC1` [Example I-197]: the IC50 is 9 nM.

Consider `COc1cc(N2CCC(N3CCN(C(C)C)CC3)CC2)ccc1Nc1ncc(C(F)(F)F)c(NCc2cccc3c2CC(=O)N3)n1` [Example I-198], for which the IC50 was determined as 11 nM.

`COc1cc(N2CCC(N3CCC(F)(F)CC3)CC2)ccc1Nc1ncc(C(F)(F)F)c(NCc2cccc3c2CC(=O)N3)n1` [Example I-199]: the IC50 turned out to be 11 nM.

On to `COc1cc(N2CCC(N3CCN(C4CCOCC4)CC3)CC2)ccc1Nc1ncc(C(F)(F)F)c(NCc2cccc3c2CC(=O)N3)n1` [Example I-200], for which the IC50 was determined as 13 nM.

In the case of `COc1cc(N2CCC(N3CCN(C(C)=O)CC3)CC2)ccc1Nc1ncc(C(F)(F)F)c(NCc2cccc3c2CC(=O)N3)n1` [Example I-201], the IC50 is 20 nM.

As for `COc1cc(N2CCC(N3CCN(C)CC3)CC2)ccc1Nc1ncc(C(F)(F)F)c(NCc2cccc3c2CC(=O)N3)n1` [Example I-202], the IC50 came out at 24 nM.

Take `CC1(C)C(=O)Nc2cccc(CNc3nc(Nc4ccc(C5CCN(CCO)CC5)cc4)ncc3Cl)c21` [Example I-205]: the IC50 was 2 nM.

With `CNC(=O)CN1CCC(c2ccc(Nc3ncc(Cl)c(NCc4cccc5c4C(C)(C)C(=O)N5)n3)cc2)CC1` [Example I-206], the IC50 came out at 5 nM.

For the molecule `CC1(C)C(=O)Nc2cccc(CNc3nc(Nc4ccc(C5CCN(CCS(C)(=O)=O)CC5)cc4)ncc3Cl)c21` [Example I-207], the IC50 was found to be 10 nM.

On to `CNC(=O)CN1CCC(c2ccc(Nc3ncc(Cl)c(NCc4cccc5c4C(C)(C)C(=O)N5)n3)c(C)c2)CC1` [Example I-219], for which the IC50 worked out at 2 nM.

Regarding `COc1cc(N2CCN(CCF)CC2)ccc1Nc1ncc(C(F)(F)F)c(NCc2cccc3c2CC(=O)N3)n1` [Example I-222], the half-inhibitory concentration (IC50) was determined as 32 nM.

Take `COc1cc(N2CCN(CCO)CC2)ccc1Nc1ncc(C(F)(F)F)c(NCc2cccc3c2CC(=O)N3)n1` [Example I-223]: the IC50 is 18 nM.
